According to patent publication US6403632B1, “Lactam metalloprotease inhibitors” (priority 2000, dated 2002):

Test system: cartilage degradation
Experiment: Acute Cartilage Degradation Rat Model
Assay type: in vivo
Conditions: rats
Source text: Acute Cartilage Degradation Rat Model A novel in vivo model of acute cartilage degradation in rats has been characterized as a method to determine the proteoglycan content in the synovial fluid after the induction of cartilage degradation.

`COc1ccc2c(c1)c(CC(=O)O)c(C)n2C(=O)c1ccc(Cl)cc1` [Indomethacin] was tested, and the “inhibition of cartilage degradation, as measured by increased proteoglycan content in the synovial fluid” value was “inactive”.
